The values that follow are results of earlier work, collected in US6495121B2, “Chewing gum containing dipetide sweetener with lengthened and improved flavor” (Holland Sweetner Company V.O.F., priority 1996, dated 2002).

Where a SMILES comes first, the peptide text is derived from it.

The conditions of this data set: relative to sucrose.

Take `COC(=O)[C@H](Cc1ccccc1)NC(=O)[C@@H](N)CC(=O)O` [Aspartame, α-L-aspartyl-L-phenylalaninemethylester] (H-Asp-Phe-OMe): the sweetening power result is “approximately 200 × that of sucrose”.
Regarding `C[C@@H](NC(=O)[C@@H](N)CC(=O)O)C(=O)NC1C(C)(C)SC1(C)C.O` [Alitame, L-α-aspartyl-n-(2,2,4,4-tetramethyl-3-thietanyl)-D-alanineamidehydrate], the sweetening power result is given as “approximately 2000 × that of sucrose”.
